# Laboratory results: the supplement of paper PMC10307832
# Legend:
# Experiment in all cases: relative viability (nuclei count vs DMSO), 5 days (fraction); higher = more cells survive
# Sunitinib = compound: CCN(CC)CCNC(=O)c1c(C)[nH]c(/C=C2\C(=O)Nc3ccc(F)cc32)c1C [Sunitinib]
# Procedure, shortened: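 Vehicle-anchored 1536-well plates of lung cancer cell lines, held overnight at 37 °C, were pinned with five library-drug doses (not always all listed) spaced by √10. No medium change followed over the next 5 days, after which the cells were fixed, permeabilised and Hoechst-stained together and imaged at 4×. Nuclei were counted with MetaXpress, and viability is treated-well nuclei over vehicle-well nuclei, taken as a median across plates. Plates passed with control CV below 25% and at least one doubling.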
# Sunitinib + Tozasertib = compound: CCN(CC)CCNC(=O)c1c(C)[nH]c(/C=C2\C(=O)Nc3ccc(F)cc32)c1C [Sunitinib] + Cc1cc(Nc2cc(N3CCN(C)CC3)nc(Sc3ccc(NC(=O)C4CC4)cc3)n2)n[nH]1 [Tozasertib] (partner 0.1 µM)
# Procedure, shortened: (§1)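 Dosing by pin tool came one day after lung cancer cell lines were seeded in 1536-well plates, using either one drug or a fixed anchor-drug dose plus five library-drug doses (not always all listed) in √10 steps. After 5 days, nuclei were counted on 4× images. Relative viability is treated-well nuclei count divided by vehicle-well nuclei count, and values are medians of duplicate plates.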
# Sunitinib + Foretinib = compound: CCN(CC)CCNC(=O)c1c(C)[nH]c(/C=C2\C(=O)Nc3ccc(F)cc32)c1C [Sunitinib] + COc1cc2c(Oc3ccc(NC(=O)C4(C(=O)Nc5ccc(F)cc5)CC4)cc3F)ccnc2cc1OCCCN1CCOCC1 [Foretinib] (partner 0.25 µM)
# Procedure, shortened: as §1
# Sunitinib + Vorinostat = compound: CCN(CC)CCNC(=O)c1c(C)[nH]c(/C=C2\C(=O)Nc3ccc(F)cc32)c1C [Sunitinib] + O=C(CCCCCCC(=O)Nc1ccccc1)NO [Vorinostat] (partner 1 µM)
# Procedure, shortened: as §1
# Sunitinib + AZD7762 = compound: CCN(CC)CCNC(=O)c1c(C)[nH]c(/C=C2\C(=O)Nc3ccc(F)cc32)c1C [Sunitinib] + NC(=O)Nc1cc(-c2cccc(F)c2)sc1C(=O)N[C@H]1CCCNC1 [AZD7762] (partner 0.2 µM)
# Procedure, shortened: as §1
# Sunitinib + Dasatinib = compound: CCN(CC)CCNC(=O)c1c(C)[nH]c(/C=C2\C(=O)Nc3ccc(F)cc32)c1C [Sunitinib] + Cc1nc(Nc2ncc(C(=O)Nc3c(C)cccc3Cl)s2)cc(N2CCN(CCO)CC2)n1 [Dasatinib] (partner 0.075 µM)
# Procedure, shortened: as §1
# Sunitinib + Trametinib = compound: CCN(CC)CCNC(=O)c1c(C)[nH]c(/C=C2\C(=O)Nc3ccc(F)cc32)c1C [Sunitinib] + CC(=O)Nc1cccc(-n2c(=O)n(C3CC3)c(=O)c3c(Nc4ccc(I)cc4F)n(C)c(=O)c(C)c32)c1 [Trametinib] (partner 0.02 µM)
# Procedure, shortened: as §1
# Sunitinib + Luminespib = compound: CCN(CC)CCNC(=O)c1c(C)[nH]c(/C=C2\C(=O)Nc3ccc(F)cc32)c1C [Sunitinib] + CCNC(=O)c1noc(-c2cc(C(C)C)c(O)cc2O)c1-c1ccc(CN2CCOCC2)cc1 [Luminespib] (partner 0.01 µM)
# Procedure, shortened: as §1
# Sunitinib + Pemetrexed = compound: CCN(CC)CCNC(=O)c1c(C)[nH]c(/C=C2\C(=O)Nc3ccc(F)cc32)c1C [Sunitinib] + Nc1nc2[nH]cc(CCc3ccc(C(=O)N[C@@H](CCC(=O)O)C(=O)O)cc3)c2c(=O)[nH]1 [Pemetrexed] (partner 0.2 µM)
# Procedure, shortened: as §1
# Sunitinib + Olaparib = compound: CCN(CC)CCNC(=O)c1c(C)[nH]c(/C=C2\C(=O)Nc3ccc(F)cc32)c1C [Sunitinib] + O=C(c1cc(Cc2n[nH]c(=O)c3ccccc23)ccc1F)N1CCN(C(=O)C2CC2)CC1 [Olaparib] (partner 8 µM)
# Procedure, shortened: as §1
# Sunitinib + OSI-027 = compound: CCN(CC)CCNC(=O)c1c(C)[nH]c(/C=C2\C(=O)Nc3ccc(F)cc32)c1C [Sunitinib] + COc1cccc2cc(-c3nc([C@H]4CC[C@H](C(=O)O)CC4)n4ncnc(N)c34)[nH]c12 [OSI-027] (partner 0.5 µM)
# Procedure, shortened: as §1
# Sunitinib + Phenformin = compound: CCN(CC)CCNC(=O)c1c(C)[nH]c(/C=C2\C(=O)Nc3ccc(F)cc32)c1C [Sunitinib] + N=C(N)NC(=N)NCCc1ccccc1 [Phenformin] (partner 250 µM)
# Procedure, shortened: as §1
# Sunitinib + Decitabine = compound: CCN(CC)CCNC(=O)c1c(C)[nH]c(/C=C2\C(=O)Nc3ccc(F)cc32)c1C [Sunitinib] + Nc1ncn([C@H]2C[C@H](O)[C@@H](CO)O2)c(=O)n1 [Decitabine] (partner 2 µM)
# Procedure, shortened: as §1
# Sunitinib + Palbociclib = compound: CCN(CC)CCNC(=O)c1c(C)[nH]c(/C=C2\C(=O)Nc3ccc(F)cc32)c1C [Sunitinib] + CC(=O)c1c(C)c2cnc(Nc3ccc(N4CCNCC4)cn3)nc2n(C2CCCC2)c1=O [Palbociclib] (partner 0.5 µM)
# Procedure, shortened: as §1
cell line,measurement,setting,value
SW 900,relative viability,Sunitinib; 0.02 µM,1.01
same,relative viability,Sunitinib; 0.06325 µM,1.07
same,relative viability,Sunitinib; 0.2 µM,0.932
same,relative viability,Sunitinib; 0.6325 µM,1.04
same,relative viability,Sunitinib; 2 µM,0.957
same,relative viability,Sunitinib + Tozasertib; first compound 0.02 µM,0.432
same,relative viability,Sunitinib + Tozasertib; first compound 0.06325 µM,0.58
same,relative viability,Sunitinib + Tozasertib; first compound 0.2 µM,0.648
same,relative viability,Sunitinib + Tozasertib; first compound 0.6325 µM,0.525
same,relative viability,Sunitinib + Tozasertib; first compound 2 µM,0.328
same,relative viability,Sunitinib + Foretinib; first compound 0.02 µM,0.834
same,relative viability,Sunitinib + Foretinib; first compound 0.06325 µM,0.934
same,relative viability,Sunitinib + Foretinib; first compound 0.2 µM,0.865
same,relative viability,Sunitinib + Foretinib; first compound 0.6325 µM,0.966
same,relative viability,Sunitinib + Foretinib; first compound 2 µM,0.834
same,relative viability,Sunitinib + Vorinostat; first compound 0.02 µM,0.516
same,relative viability,Sunitinib + Vorinostat; first compound 0.06325 µM,0.626
same,relative viability,Sunitinib + Vorinostat; first compound 0.2 µM,0.541
same,relative viability,Sunitinib + Vorinostat; first compound 0.6325 µM,0.604
same,relative viability,Sunitinib + Vorinostat; first compound 2 µM,0.597
same,relative viability,Sunitinib + AZD7762; first compound 0.02 µM,0.633
same,relative viability,Sunitinib + AZD7762; first compound 0.06325 µM,0.676
same,relative viability,Sunitinib + AZD7762; first compound 0.2 µM,0.664
same,relative viability,Sunitinib + AZD7762; first compound 0.6325 µM,0.67
same,relative viability,Sunitinib + AZD7762; first compound 2 µM,0.648
same,relative viability,Sunitinib + Dasatinib; first compound 0.02 µM,0.418
same,relative viability,Sunitinib + Dasatinib; first compound 0.06325 µM,0.722
same,relative viability,Sunitinib + Dasatinib; first compound 0.2 µM,0.634
same,relative viability,Sunitinib + Dasatinib; first compound 0.6325 µM,0.717
same,relative viability,Sunitinib + Dasatinib; first compound 2 µM,0.605
same,relative viability,Sunitinib + Trametinib; first compound 0.02 µM,0.718
same,relative viability,Sunitinib + Trametinib; first compound 0.06325 µM,0.715
same,relative viability,Sunitinib + Trametinib; first compound 0.2 µM,0.941
same,relative viability,Sunitinib + Trametinib; first compound 0.6325 µM,0.795
same,relative viability,Sunitinib + Trametinib; first compound 2 µM,0.766
same,relative viability,Sunitinib + Luminespib; first compound 0.02 µM,0.183
same,relative viability,Sunitinib + Luminespib; first compound 0.06325 µM,0.22
same,relative viability,Sunitinib + Luminespib; first compound 0.2 µM,0.172
same,relative viability,Sunitinib + Luminespib; first compound 0.6325 µM,0.192
same,relative viability,Sunitinib + Luminespib; first compound 2 µM,0.194
same,relative viability,Sunitinib + Pemetrexed; first compound 0.02 µM,0.466
same,relative viability,Sunitinib + Pemetrexed; first compound 0.06325 µM,0.495
same,relative viability,Sunitinib + Pemetrexed; first compound 0.2 µM,0.491
same,relative viability,Sunitinib + Pemetrexed; first compound 0.6325 µM,0.5
same,relative viability,Sunitinib + Pemetrexed; first compound 2 µM,0.501
same,relative viability,Sunitinib + Olaparib; first compound 0.02 µM,0.794
same,relative viability,Sunitinib + Olaparib; first compound 0.06325 µM,1.04
same,relative viability,Sunitinib + Olaparib; first compound 0.2 µM,0.847
same,relative viability,Sunitinib + Olaparib; first compound 0.6325 µM,1.1
same,relative viability,Sunitinib + Olaparib; first compound 2 µM,0.945
same,relative viability,Sunitinib + OSI-027; first compound 0.02 µM,0.597
same,relative viability,Sunitinib + OSI-027; first compound 0.06325 µM,0.715
same,relative viability,Sunitinib + OSI-027; first compound 0.2 µM,0.665
same,relative viability,Sunitinib + OSI-027; first compound 0.6325 µM,0.584
same,relative viability,Sunitinib + OSI-027; first compound 2 µM,0.614
same,relative viability,Sunitinib + Phenformin; first compound 0.02 µM,0.579
same,relative viability,Sunitinib + Phenformin; first compound 0.06325 µM,0.79
same,relative viability,Sunitinib + Phenformin; first compound 0.2 µM,0.641
same,relative viability,Sunitinib + Phenformin; first compound 0.6325 µM,0.894
same,relative viability,Sunitinib + Phenformin; first compound 2 µM,0.581
same,relative viability,Sunitinib + Decitabine; first compound 0.02 µM,0.44
same,relative viability,Sunitinib + Decitabine; first compound 0.06325 µM,0.364
same,relative viability,Sunitinib + Decitabine; first compound 0.2 µM,0.394
same,relative viability,Sunitinib + Decitabine; first compound 0.6325 µM,0.407
same,relative viability,Sunitinib + Decitabine; first compound 2 µM,0.433
same,relative viability,Sunitinib + Palbociclib; first compound 0.02 µM,0.517
same,relative viability,Sunitinib + Palbociclib; first compound 0.06325 µM,0.592
same,relative viability,Sunitinib + Palbociclib; first compound 0.2 µM,0.576
same,relative viability,Sunitinib + Palbociclib; first compound 0.6325 µM,0.587
same,relative viability,Sunitinib + Palbociclib; first compound 2 µM,0.604
NCI-H522,relative viability,Sunitinib; 0.02 µM,0.927
same,relative viability,Sunitinib; 0.06325 µM,1.12
same,relative viability,Sunitinib; 0.2 µM,0.996
same,relative viability,Sunitinib; 0.6325 µM,0.962
same,relative viability,Sunitinib; 2 µM,0.999
same,relative viability,Sunitinib + Tozasertib; first compound 0.02 µM,0.6
same,relative viability,Sunitinib + Tozasertib; first compound 0.06325 µM,0.568
same,relative viability,Sunitinib + Tozasertib; first compound 0.2 µM,0.499
same,relative viability,Sunitinib + Tozasertib; first compound 0.6325 µM,0.521
same,relative viability,Sunitinib + Tozasertib; first compound 2 µM,0.682
same,relative viability,Sunitinib + Vorinostat; first compound 0.02 µM,0.831
same,relative viability,Sunitinib + Vorinostat; first compound 0.06325 µM,1.04
same,relative viability,Sunitinib + Vorinostat; first compound 0.2 µM,0.927
same,relative viability,Sunitinib + Vorinostat; first compound 0.6325 µM,0.922
same,relative viability,Sunitinib + Vorinostat; first compound 2 µM,1.05
same,relative viability,Sunitinib + AZD7762; first compound 0.02 µM,0.839
same,relative viability,Sunitinib + AZD7762; first compound 0.2 µM,0.73
same,relative viability,Sunitinib + AZD7762; first compound 0.6325 µM,0.848
same,relative viability,Sunitinib + AZD7762; first compound 2 µM,0.942
same,relative viability,Sunitinib + Dasatinib; first compound 0.02 µM,0.731
same,relative viability,Sunitinib + Dasatinib; first compound 0.06325 µM,1.05
same,relative viability,Sunitinib + Dasatinib; first compound 0.2 µM,0.899
same,relative viability,Sunitinib + Dasatinib; first compound 0.6325 µM,1.04
same,relative viability,Sunitinib + Dasatinib; first compound 2 µM,0.923
same,relative viability,Sunitinib + Trametinib; first compound 0.06325 µM,0.672
same,relative viability,Sunitinib + Trametinib; first compound 0.2 µM,0.667
same,relative viability,Sunitinib + Trametinib; first compound 0.6325 µM,0.783
same,relative viability,Sunitinib + Trametinib; first compound 2 µM,0.794
same,relative viability,Sunitinib + Luminespib; first compound 0.02 µM,0.951
same,relative viability,Sunitinib + Luminespib; first compound 0.06325 µM,1.11
same,relative viability,Sunitinib + Luminespib; first compound 0.2 µM,1.21
same,relative viability,Sunitinib + Luminespib; first compound 0.6325 µM,1.14
same,relative viability,Sunitinib + Luminespib; first compound 2 µM,1.28
same,relative viability,Sunitinib + Pemetrexed; first compound 0.02 µM,0.861
same,relative viability,Sunitinib + Pemetrexed; first compound 0.06325 µM,1.12
same,relative viability,Sunitinib + Pemetrexed; first compound 0.2 µM,0.915
same,relative viability,Sunitinib + Pemetrexed; first compound 0.6325 µM,0.858
same,relative viability,Sunitinib + Pemetrexed; first compound 2 µM,0.999
same,relative viability,Sunitinib + Olaparib; first compound 0.02 µM,0.623
same,relative viability,Sunitinib + Olaparib; first compound 0.06325 µM,0.574
same,relative viability,Sunitinib + Olaparib; first compound 0.2 µM,0.75
same,relative viability,Sunitinib + Olaparib; first compound 0.6325 µM,0.616
same,relative viability,Sunitinib + Olaparib; first compound 2 µM,0.641
same,relative viability,Sunitinib + OSI-027; first compound 0.02 µM,0.648
same,relative viability,Sunitinib + OSI-027; first compound 0.06325 µM,0.831
same,relative viability,Sunitinib + OSI-027; first compound 0.2 µM,0.769
same,relative viability,Sunitinib + OSI-027; first compound 0.6325 µM,0.744
same,relative viability,Sunitinib + OSI-027; first compound 2 µM,0.69
same,relative viability,Sunitinib + Phenformin; first compound 0.02 µM,0.602
same,relative viability,Sunitinib + Phenformin; first compound 0.06325 µM,0.79
same,relative viability,Sunitinib + Phenformin; first compound 0.2 µM,0.659
same,relative viability,Sunitinib + Phenformin; first compound 0.6325 µM,0.673
same,relative viability,Sunitinib + Phenformin; first compound 2 µM,0.756
same,relative viability,Sunitinib + Decitabine; first compound 0.02 µM,0.594
same,relative viability,Sunitinib + Decitabine; first compound 0.06325 µM,0.675
same,relative viability,Sunitinib + Decitabine; first compound 0.2 µM,0.735
same,relative viability,Sunitinib + Decitabine; first compound 0.6325 µM,0.719
same,relative viability,Sunitinib + Decitabine; first compound 2 µM,0.717
same,relative viability,Sunitinib + Palbociclib; first compound 0.02 µM,0.961
same,relative viability,Sunitinib + Palbociclib; first compound 0.06325 µM,0.924
same,relative viability,Sunitinib + Palbociclib; first compound 0.2 µM,1.11
same,relative viability,Sunitinib + Palbociclib; first compound 0.6325 µM,1.03
same,relative viability,Sunitinib + Palbociclib; first compound 2 µM,0.909
